# Results: patent US12612380B2, “Non-lysosomal glucosylceramidase inhibitors and uses thereof” (ALECTOS THERAPEUTICS INC., priority 2019, dated 2026)
# Biological target: T1, GBA2 (Homo sapiens, UniProt Q9HCG7)
# T1 sequence (Q9HCG7 1-927): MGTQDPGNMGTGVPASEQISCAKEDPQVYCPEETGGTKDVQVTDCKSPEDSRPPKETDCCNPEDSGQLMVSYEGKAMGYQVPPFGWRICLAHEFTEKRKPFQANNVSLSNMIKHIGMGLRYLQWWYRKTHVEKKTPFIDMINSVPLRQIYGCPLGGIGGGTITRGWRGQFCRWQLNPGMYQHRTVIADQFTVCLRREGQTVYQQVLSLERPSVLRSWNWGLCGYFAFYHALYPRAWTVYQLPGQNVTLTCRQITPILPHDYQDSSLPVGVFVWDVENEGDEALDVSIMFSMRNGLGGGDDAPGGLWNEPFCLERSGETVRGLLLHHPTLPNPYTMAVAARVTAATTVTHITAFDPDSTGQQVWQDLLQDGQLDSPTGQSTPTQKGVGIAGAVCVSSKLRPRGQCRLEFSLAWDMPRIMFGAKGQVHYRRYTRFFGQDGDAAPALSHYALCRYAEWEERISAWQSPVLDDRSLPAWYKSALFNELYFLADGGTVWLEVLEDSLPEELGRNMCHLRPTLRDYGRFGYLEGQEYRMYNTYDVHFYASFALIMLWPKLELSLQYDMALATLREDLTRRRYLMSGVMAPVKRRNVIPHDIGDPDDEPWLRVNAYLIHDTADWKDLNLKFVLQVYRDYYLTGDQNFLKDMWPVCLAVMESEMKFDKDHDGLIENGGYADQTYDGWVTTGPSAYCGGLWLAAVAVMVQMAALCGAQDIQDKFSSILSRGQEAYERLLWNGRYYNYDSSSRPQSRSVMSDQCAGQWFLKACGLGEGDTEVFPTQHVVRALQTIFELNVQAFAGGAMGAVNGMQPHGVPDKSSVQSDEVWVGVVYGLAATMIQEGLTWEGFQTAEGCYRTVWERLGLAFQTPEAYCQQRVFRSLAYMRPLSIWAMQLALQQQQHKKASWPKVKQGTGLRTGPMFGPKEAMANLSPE
# Assay: Determination of IC50 values for inhibition of GBA2 in cell lysate
# Type: biochemical
# Design: host or cells: HEK293T (lentiviral transduction, puromycin selection); used as cellular homogenate
# Conditions: not given
# From the text: Assay for Determination of IC50 Values for Inhibition of GBA2 in Cell Lysate
# Stable GBA2-expressing HEK293T cells were generated as follows. The PCR-amplified human GBA2 (GBA2 nucleotide accession number BC011363) using the following primers: Sense 5′---CGCAAATGGGCGGTAGGCGTG (SEQ ID NO:2)---3′ and antisense 5′---TAGTCAGCCATGGGGCGGAGA (SEQ ID NO:3)---3′) was cloned into pLenti-GIII-CMV by ABM Inc. The correctness of the construct was verified by sequencing. Lentivirus particles containing GBA2 in the pLenti-GIII-CMV plasmid were prepared using a third Generation Virus Packaging Mix (ABM cat #LV053-G074) in HEK293T cells and supplied as a virus particle suspension. The virus suspension was used for infection of HEK293T cells. Cell populations stably expressing human GBA2 were selected using puromycin for several weeks as determined by activity assays and western blot.
# Various concentrations of test compounds were prepared in DMSO and then diluted into buffer consisting of 100 mM citric acid, 200 mM disodium phosphate with 1% v/v C10E6, pH 5.5. Cellular homogenates (0.25 mg/mL) of the stable HEK293T-overexpressing GBA2 cell line were preincubated for 10 min on ice with an inhibitor of GCase (20 μM (6R,7R,8S)-8-ethyl-4-azaspiro[2.5]octane-6,7-diol). The reaction solution consisted of 20 μL of 750 μM 4-methylumbelliferone-β-D glucopyranoside in 5% DMSO in the same buffer, 20 μL of GBA2-cellular homogenate pre-treated with (6R,7R,8S)-8-ethyl-4-azaspiro[2.5]octane-6,7-diol and 20 μL of various concentrations of test compound in 10% DMSO in the same buffer. The final concentrations in the reaction were 0.083 mg/mL GBA2-cellular homogenate, 250 μM 4-methylumbelliferone-β-D glucopyranoside, and various concentrations of inhibitor. The inhibitor and GBA2-cellular homogenate were preincubated together for 5 min at 37° C. The reaction was initiated by addition of substrate and allowed to proceed for 20 min at 37° C. to assess GBA2 activity. Reactions were stopped by the addition of an equal volume (60 μL) of 0.5 M NaOH, 0.3 M glycine, pH 10.5. Fluorescence was measured on a Biotek Synergy H4 plate reader at wavelengths of 365 nm for excitation and 450 nm for emission. Incubations without added enzyme or added inhibitors were used to define no enzyme activity and maximal enzyme activity, respectively. IC50 values were determined by fitting the data to a log[inhibitor concentration] versus response curve using GraphPad Prism. IC50 values were calculated as the concentration of inhibitor required to inhibit GBA2 activity by 50%.
row,SMILES,IC50 [nM]
1,"Cc1ccccc1CCN1C[C@H](O)[C@@H](O)[C@H](O)[C@H]1C [Example 36, (2R,3R,4R,5S)-2-methyl-1-(2-methylphenethyl)piperidine-3,4,5-triol]",100 to 1000
2,"C[C@@H]1[C@@H](O)[C@H](O)[C@@H](O)CN1CCc1ccccc1F [Example 38, (2R,3R,4R,5S)-1-(2-fluorophenethyl)-2-methylpiperidine-3,4,5-triol]",100 to 1000
3,"C[C@@H]1[C@@H](O)[C@H](O)[C@@H](O)CN1CCc1cccs1 [Example 74, (2R,3R,4R,5S)-2-methyl-1-(2-(thiophen-2-yl)ethyl)piperidine-3,4,5-triol]",100 to 1000
4,"C[C@H]1[C@@H](O)[C@H](O)[C@@H](O)CN1CCc1ccccc1F [Example 157, (2S,3R,4R,5S)-1-(2-fluorophenethyl)-2-methylpiperidine-3,4,5-triol]",1000 to 25000
5,"C[C@@H]1[C@@H](O)[C@H](O)[C@@H](O)CN1CCc1ccsc1 [Example 75, (2R,3R,4R,5S)-2-methyl-1-(2-(thiophen-3-yl)ethyl)piperidine-3,4,5-triol]",100 to 1000
6,"C[C@@H]1[C@@H](O)[C@H](O)[C@@H](O)CN1CCc1ccc(F)c(F)c1 [Example 43, (2R,3R,4R,5S)-1-(3,4-difluorophenethyl)-2-methylpiperidine-3,4,5-triol]",100 to 1000
7,"C[C@@H]1[C@@H](O)[C@H](O)[C@@H](O)CN1CCc1ccc(Cl)cc1F [Example 46, (2R,3R,4R,5S)-1-(4-chloro-2-fluorophenethyl)-2-methylpiperidine-3,4,5-triol]",100 to 1000
8,"C[C@@H]1[C@@H](O)[C@H](O)[C@@H](O)CN1CCc1ccc(OC2CCOCC2)cc1 [Example 63, (2R,3R,4R,5S)-2-methyl-1-(4-((tetrahydro-2H-pyran-4-yl)oxy)phenethyl)piperidine-3,4,5-triol]",< 100
9,"C[C@@H]1[C@@H](O)[C@H](O)[C@@H](O)CN1CCc1ccccc1Cl [Example 39, (2R,3R,4R,5S)-1-(2-chlorophenethyl)-2-methylpiperidine-3,4,5-triol]",100 to 1000

# Same assay, conditions: cellular homogenate of HEK293T cells overexpressing human GBA2, 250 μM 4-methylumbelliferone-β-D glucopyranoside, pH 5.5, 37° C., GCase inhibitor present; read-out: GBA2 IC50
row,SMILES,IC50 [nM]
1,"C[C@@H]1[C@@H](O)[C@H](O)[C@@H](O)CN1C[C@@H]1CCCN(c2cccc(C(F)(F)F)n2)C1 [Example 143, (2R,3R,4R,5S)-2-methyl-1-(((S)-1-(6-(trifluoromethyl)pyridin-2-yl)piperidin-3-yl)methyl)piperidine-3,4,5-triol]",< 100
2,"C[C@@H]1[C@@H](O)[C@H](O)[C@@H](O)CN1CC1CCC(Cl)(Cl)CC1 [Example 4, (2R,3R,4R,5S)-1-((4,4-dichlorocyclohexyl)methyl)-2-methylpiperidine-3,4,5-triol]",< 100
3,"C[C@@H]1[C@@H](O)[C@H](O)[C@@H](O)CN1CC1CCN(CC(F)(F)F)CC1 [Example 91, (2R,3R,4R,5S)-2-methyl-1-((1-(2,2,2-trifluoroethyl)piperidin-4-yl)methyl)piperidine-3,4,5-triol]",100 to 1000

# Continued, values first:
row,IC50 [nM],SMILES
1,100 to 1000,"CC(C)CC(=O)N1CCC(CN2C[C@H](O)[C@@H](O)[C@H](O)[C@H]2C)CC1 [Example 95, 3-methyl-1-(4-(((2R,3R,4R,5S)-3,4,5-trihydroxy-2-methylpiperidin-1-yl)methyl)piperidin-1-yl)butan-1-one]"
2,< 100,"C[C@@H]1[C@@H](O)[C@H](O)[C@@H](O)CN1CC1CCN(c2ccc(C(F)(F)F)cc2)CC1 [Example 86, (2R,3R,4R,5S)-2-methyl-1-((1-(4-(trifluoromethyl)phenyl)piperidin-4-yl)methyl)piperidine-3,4,5-triol]"
3,100 to 1000,"C[C@@H]1[C@@H](O)[C@H](O)[C@@H](O)CN1CC1CCN(C(=S)NC2CCCCC2)CC1 [Example 111, N-cyclohexyl-4-(((2R,3R,4R,5S)-3,4,5-trihydroxy-2-methylpiperidin-1-yl)methyl)piperidine-1-carbothioamide]"
4,< 100,"O[C@H]1[C@H](O)[C@@H](O)CN(CC2CCN(c3ccccc3)CC2)[C@@H]1CF [Example 154, (2S,3R,4R,5S)-2-(fluoromethyl)-1-((1-phenylpiperidin-4-yl)methyl)piperidine-3,4,5-triol]"
5,< 100,"CCC1CCC(CN2C[C@H](O)[C@@H](O)[C@H](O)[C@H]2C)CC1 (stereo partly drawn) [Example 5, (2R,3R,4R,5S)-1-((4-ethylcyclohexyl)methyl)-2-methylpiperidine-3,4,5-triol]"
6,100 to 1000,"C[C@@H]1[C@@H](O)[C@H](O)[C@@H](O)CN1CC1CCC2(CC1)CC2 [Example 23, (2R,3R,4R,5S)-2-methyl-1-(spiro[2.5]octan-6-ylmethyl)piperidine-3,4,5-triol]"
7,< 100,"C[C@@H]1[C@@H](O)[C@H](O)[C@@H](O)CN1C[C@H]1CCC[C@H](C(F)(F)F)C1 [Example 15, (2R,3R,4R,5S)-2-methyl-1-(((trans)-3-(trifluoromethyl)cyclohexyl)methyl)piperidine-3,4,5-triol]"
8,< 100,"C[C@@H]1[C@@H](O)[C@H](O)[C@@H](O)CN1CCc1ccc(OC2CCOC2)cc1 (stereo partly drawn) [Example 61, (2R,3R,4R,5S)-2-methyl-1-(4-((tetrahydrofuran-3-yl)oxy)phenethyl)piperidine-3,4,5-triol]"
9,100 to 1000,"COCC1CCC(CN2C[C@H](O)[C@@H](O)[C@H](O)[C@H]2C)CC1 (stereo partly drawn) [Example 19, (2R,3R,4R,5S)-1-((4-(methoxymethyl)cyclohexyl)methyl)-2-methylpiperidine-3,4,5-triol]"
10,< 100,"C[C@@H]1[C@@H](O)[C@H](O)[C@@H](O)CN1CC1CCN(C(=O)c2cccc(C(F)(F)F)c2)CC1 [Example 107, (3-(trifluoromethyl)phenyl)(4-(((2R,3R,4R,5S)-3,4,5-trihydroxy-2-methylpiperidin-1-yl)methyl)piperidin-1-yl)methanone]"
11,< 100,"O[C@H]1[C@H](O)[C@@H](O)CN(CC2CCN(c3ccc(C(F)(F)F)cc3)CC2)[C@@H]1CF [Example 155, (2S,3R,4R,5S)-2-(fluoromethyl)-1-((1-(4-(trifluoromethyl)phenyl)piperidin-4-yl)methyl)piperidine-3,4,5-triol]"
12,100 to 1000,"C[C@@H]1[C@@H](O)[C@H](O)[C@@H](O)CN1CC1CCN(C(=O)C(C)(C)C)CC1 [Example 93, 2,2-dimethyl-1-(4-(((2R,3R,4R,5S)-3,4,5-trihydroxy-2-methylpiperidin-1-yl)methyl)piperidin-1-yl)propan-1-one]"
13,< 100,"C[C@@H]1[C@@H](O)[C@H](O)[C@@H](O)CN1CC1Cc2ccccc2C1 [Example 28, (2R,3R,4R,5S)-1-((2,3-dihydro-1H-inden-2-yl)methyl)-2-methylpiperidine-3,4,5-triol]"
14,1000 to 25000,"C[C@@H]1[C@@H](O)[C@H](O)[C@@H](O)CN1CC1(C)CCN(c2ccccc2)CC1 [Example 87, (2R,3R,4R,5S)-2-methyl-1-((4-methyl-1-phenylpiperidin-4-yl)methyl)piperidine-3,4,5-triol]"
